In patent publication US4073908A, “8-Amino-theophylline derivatives and therapeutic applications thereof” (Laboratoire le Brun S.A., priority 1975, dated 1978):

Columns and labels:
Acute toxicity in rats = assay type: in vivo; conditions: rat, in vivo, po, single administration
Source text: (§1) Acute toxicity in mice by the sub-cutaneous and oral routes and in rats by the oral route was investigated by determination of the death rate following a single administration of increasing dosages.
(§2) Symbol > means that the LD50 is not attained at the dosage indicated.

Acute toxicity in mice = assay type: in vivo; conditions: mouse, in vivo, single administration
Source text: as §1, §2

[1] = system: carrage enin-induced edema in rats; test: Anti-inflammatory: carrageenin-induced edema in rats; assay type: in vivo; conditions: oral route
Procedure: The technique used was that of the carrage enin-induced edema in rats (oral route). The dosage which inhibits this edema by a factor of 50% was evaluated by interpolation.

rats [2] = test: Acute toxicity in rats; assay type: in vivo; conditions: single administration
Source text: as §1, §2

mice = test: Acute toxicity in mice; assay type: in vivo; conditions: single administration
Source text: as §1, §2

[3] = system: aggressiveness subsequent to electric shocks in rats; test: Anti-aggressive: aggressiveness subsequent to electric shocks, rats; assay type: in vivo; conditions: Rattus norvegicus, oral, read-out: Oral AD50, electric shock in rats
Procedure: (§3) a. aggressiveness subsequent to electric shocks in mice and rats,
(§4) In all cases, the AD50 values were determined by the oral route.

[4] = system: aggressiveness subsequent to extended isolation in mice; test: Anti-aggressive: aggressiveness subsequent to extended isolation, mice; assay type: in vivo; conditions: Mus musculus, oral, read-out: Oral AD50, isolated mice
Procedure: (§5) c. aggressiveness subsequent to extended isolation, in mice,
as §4

learning in rats = test: Effect on learning: Shuttle-box test; assay type: in vivo; conditions: compared with chlordiazepoxide
Source text: f. Effect on learning in rats: Shuttle-box test.

rats [5] = test: Oral subacute toxicity in rats; assay type: in vivo; conditions: 1 month old rats, up to a daily dosage of 100 mg/kg
Source text: Oral subacute toxicity in rats was investigated by determination of the death rate (if any), of the change in the weight of some organs, and by hematologic examinations, and the like.
Subacute toxicity in 1 month old rats, with compounds Nos. 11 and 18

[6] = system: aggressiveness in mice-killing rats; test: Anti-aggressive: aggressiveness in mice-killing rats; assay type: in vivo
Procedure: (§6) d. aggressiveness in mice-killing rats.
as §4

rotarod test in mice = test: Incapacitating effect: rotarod test; assay type: in vivo; conditions: compared with chlordiazepoxide
Source text: a. Incapacitating effect: rotarod test in mice.

[7] = system: aggressiveness subsequent to electric shocks in mice; test: Anti-aggressive: aggressiveness subsequent to electric shocks, mice; assay type: in vivo; conditions: Mus musculus, oral, read-out: Oral AD50, electric shock in mice
Procedure: as §3, §4

[8] = system: narcosis induced by pentobarbital in mice; test: Effect on narcosis induced by pentobarbital; assay type: in vivo; conditions: compared with chlordiazepoxide
Source text: (§7) d. Effect on narcosis induced by pentobarbital and ethanol in mice.

[9] = system: reserpine effect on temperature and ptosis; test: Anti-reserpine effect on temperature and ptosis; assay type: in vivo; conditions: compared with Imipramine
Source text: b. Anti-reserpine effect on temperature and ptosis.

[10] = system: cardiazol convulsions in mice; test: Anti-convulsant effect with respect to cardiazol; assay type: in vivo; conditions: compared with chlordiazepoxide
Source text: c. Anti-convulsant effect with respect to cardiazol in mice.

[11] = system: narcosis induced by ethanol in mice; test: Effect on narcosis induced by ethanol; assay type: in vivo
Source text: as §7

[12] = system: stereotypy induced by apomorphine injection in rats; test: Effect on stereotypy induced by apomorphine injection; assay type: in vivo
Source text: e. Effect on stereotypy induced by apomorphine injection in rats.

[13] = system: aggressiveness in mice and rats; test: Anti-aggressive tests overall; assay type: in vivo; conditions: oral
Procedure: as §3
(§8) b. aggressiveness subsequent to apomorphine injection (1 mg/kg, in vivo) in rats,
as §5, §6, §4

[14] = system: aggressiveness subsequent to apomorphine injection in rats; test: Anti-aggressive: aggressiveness subsequent to apomorphine injection, rats; assay type: in vivo; conditions: Rattus norvegicus, oral, apomorphine injection 1 mg/kg, read-out: Oral AD50, apomorphine, in rats
Procedure: as §8, §4

catalepsy and ptosis = test: Neuroleptic effects: catalepsy and ptosis; conditions: in vivo
[15] = po, read-out: LD50, oral route, mice
[16] = sc, read-out: LD50, s.c. route, mice

SMILES | LD50 (Acute toxicity in rats) [mg/kg] | LD50 (Acute toxicity in mice; [15]) [mg/kg] | LD50 (Acute toxicity in mice; [16]) [mg/kg] | further results
CC1CN(CCN2CCn3c2nc2c3c(=O)n(C)c(=O)n2C)CCN1c1cccc(Cl)c1 (stereo not shown) [Compound 21] | > 100 | > 300 | > 300 | 
Cn1c(=O)c2c(nc3n2CCCN3CCCN2CCN(c3cccc(Cl)c3)CC2)n(C)c1=O [Compound 20] | > 100 | > 300 | > 300 | anti-inflammatory activity (in words) [1]: the more active, the activities being substantially equivalent to those of phenyl butazone
Cn1c(=O)c2c(nc3n2CCN3CCN2CCN(c3cccc(Cl)c3)CC2)n(C)c1=O [Compound 31] |  |  |  | LD50, oral route, rats (rats [2]): > 100 mg/kg; LD50, oral route, mice (mice): 150 mg/kg; LD50, s.c. route, mice (mice; s.c. route): > 300 mg/kg
CC(CN1CCCn2c1nc1c2c(=O)n(C)c(=O)n1C)N1CCN(c2cccc(Cl)c2)CC1 (stereo not shown) [Compound 19] | > 100 | > 300 | > 300 | 
Cn1c(=O)c2c(nc3n2CCCN3CCCCCCN2CCN(c3cccc(Cl)c3)CC2)n(C)c1=O [Compound 30] | > 100 | > 300 | > 300 | 
Cn1c(=O)c2c(nc3n2CCN3CCN2CCN(c3cc(Cl)cc(Cl)c3)CC2)n(C)c1=O [Compound 15] | > 100 | > 300 | > 300 | 
Cn1c(=O)c2c(nc3n2CCN3CCCN2CCN(c3cccc(Cl)c3)CC2)n(C)c1=O [Compound 17] | > 100 | > 300 | > 300 | 
Cn1c(=O)c2c(nc3n2CCN3CCN2CCN(c3cccc(Cl)c3)CC2)n(C)c1=O [Compound 11] |  |  | > 300 | ED50 [3]: 45 mg/kg; ED50 [4]: 10 mg/kg; LD50, oral route, rats (rats [2]): 1000 mg/kg; LD50, oral route, mice (mice): 450 mg/kg; learning-delaying effect (learning in rats): does not, as the latter compound, exhibit incapacitating, anti-convulsant, pentobarbitalor ethanol-induced narcosis-potentiating, or learning-delaying effects; death rate (fatal issue) (rats [5]): No fatal issue was noted; ED50 ([6]; Rattus norvegicus, oral, read-out: Oral AD50, mice-killing rats): 50 mg/kg; activity in the mice-killing test in rats relative to Imipramine ([6]; compared with Imipramine): Superior to Imipramine in the mice-killing test in rats; incapacitating effect (rotarod test in mice): does not, as the latter compound, exhibit incapacitating; ED50 [7]: 30 mg/kg; pentobarbital-induced narcosis-potentiating effect [8]: does not, as the latter compound, exhibit incapacitating, anti-convulsant, pentobarbitalor ethanol-induced narcosis-potentiating; anti-reserpinic effect [9]: absence of anti-reserpinic effect; anti-convulsant effect [10]: does not, as the latter compound, exhibit incapacitating, anti-convulsant; ethanol-induced narcosis-potentiating effect [11]: does not, as the latter compound, exhibit incapacitating, anti-convulsant, pentobarbitalor ethanol-induced narcosis-potentiating; apomorphinic anti-stereotypy [12]: absence of apomorphinic anti-stereotypy; anti-aggressive activity (in words) [13]: in most cases, are superior to those of chlordiazepoxide in the anti-aggressive tests; ED50 [14]: 140 mg/kg; catalepsy (catalepsy and ptosis): absence of apomorphinic anti-stereotypy, of catalepsy; ptosis (catalepsy and ptosis): absence of apomorphinic anti-stereotypy, of catalepsy and of ptosis
CC(CN1CCn2c1nc1c2c(=O)n(C)c(=O)n1C)N1CCN(c2cccc(Cl)c2)CC1 (stereo not shown) [Compound 16] | > 100 | > 300 | > 300 | 
Cn1c(=O)c2c(nc3n2CCN3CCN2CCN(c3cccc(I)c3)CC2)n(C)c1=O [Compound 9] | > 100 | > 300 | > 300 | 
COc1cccc(N2CCN(CCN3CCn4c3nc3c4c(=O)n(C)c(=O)n3C)CC2)c1 [Compound 3] | > 100 | > 300 | > 300 | ED50 [3]: 100 mg/kg; ED50 [4]: 25 mg/kg; ED50 [7]: 30 mg/kg; ED50 [14]: 180 mg/kg
Cn1c(=O)c2c(nc3n2CCCCN3CCCN2CCN(c3cccc(Cl)c3)CC2)n(C)c1=O [Compound 27] | > 100 | > 300 | > 300 | 
COc1ccc(N2CCN(CCN3CCn4c3nc3c4c(=O)n(C)c(=O)n3C)CC2)cc1 [Compound 4] | > 100 | > 300 | > 300 | 
CCC1CN(CCN2CCn3c2nc2c3c(=O)n(C)c(=O)n2C)CCN1c1cccc(Cl)c1 (stereo not shown) [Compound 24] | > 100 | 300 | > 300 | 
